As a reminder, the IC50 is the concentration that gives 50% inhibition. Lower therefore signals higher potency.

Here are results for one compound from patent USRE47193E1, “Selectively substituted quinoline compounds” (EISAI R&D MANAGEMENT CO., LTD., priority 2013, dated 2019).

One assay deals with T1, Human TLR4 (Homo sapiens, UniProt O00206).
T1 construct: stably and individually express human TLR4, TLR7 or TLR9 full-length ORF cDNAs; expressed in transfected cells; host or cells: HEK-293 (ATCC) with ELAM-1 NF-kappaB luciferase reporter
Description: HEK-293 human TLR4 NF-kappaB luciferase reporter assay (LPS). Format: cell-based. As to conditions: ligand LPS, analyte NFkB-luciferase. As for the experimental part: (§1) To identify potent and selective TLR7/8 compounds, analogs were initially screened across a cell-based panel of human TLR4, TLR7, and TLR9 reporter lines (see Pharmacology Materials and Methods for more details). […] Certain compounds were advanced into the short-term in vivo (STIV) assay to determine dose-dependent activity and duration-of-action against mouse TLR7 (see Pharmacology Materials and Methods for more details). Select compounds were then evaluated for impact in one or more of the following mouse lupus disease models: BXSB-Yaa, NZBx-NZW, and Pristane DBA/1.
(§2) HEK-293 cells (ATCC) were engineered to stably express a NF-kappaB transcription factor inducible E-selectin (ELAM-1) luciferase reporter derived from the plasmid pGL3 (Promega) containing base pairs −2241 bp to −254 bp from the promoter of the human E-selectin gene (Accession No. NM_000450). These cells were then subsequently engineered to stably and individually express human TLR4, TLR7 or TLR9 full-length ORF cDNAs. Human TLR4 cDNA (Accession No. NM_138554) was cloned into pcDNA 3.0 expression vector (Invitrogen). TLR4 transfected cells were also engineered to express human MD-2 co-receptor [MD-2 cDNA (Accession No. NM_015364) was cloned into the pEF-BOS vector] and were supplemented with 10 nM soluble CD14 (R&D Systems) in the media to optimize LPS responsiveness. […]
For orientation: A reporter such as luciferase makes a cellular process visible.

The target in another assay is T2, TLR9 (Homo sapiens, UniProt Q9NR96).
T2 sequence (Q9NR96 26-1032): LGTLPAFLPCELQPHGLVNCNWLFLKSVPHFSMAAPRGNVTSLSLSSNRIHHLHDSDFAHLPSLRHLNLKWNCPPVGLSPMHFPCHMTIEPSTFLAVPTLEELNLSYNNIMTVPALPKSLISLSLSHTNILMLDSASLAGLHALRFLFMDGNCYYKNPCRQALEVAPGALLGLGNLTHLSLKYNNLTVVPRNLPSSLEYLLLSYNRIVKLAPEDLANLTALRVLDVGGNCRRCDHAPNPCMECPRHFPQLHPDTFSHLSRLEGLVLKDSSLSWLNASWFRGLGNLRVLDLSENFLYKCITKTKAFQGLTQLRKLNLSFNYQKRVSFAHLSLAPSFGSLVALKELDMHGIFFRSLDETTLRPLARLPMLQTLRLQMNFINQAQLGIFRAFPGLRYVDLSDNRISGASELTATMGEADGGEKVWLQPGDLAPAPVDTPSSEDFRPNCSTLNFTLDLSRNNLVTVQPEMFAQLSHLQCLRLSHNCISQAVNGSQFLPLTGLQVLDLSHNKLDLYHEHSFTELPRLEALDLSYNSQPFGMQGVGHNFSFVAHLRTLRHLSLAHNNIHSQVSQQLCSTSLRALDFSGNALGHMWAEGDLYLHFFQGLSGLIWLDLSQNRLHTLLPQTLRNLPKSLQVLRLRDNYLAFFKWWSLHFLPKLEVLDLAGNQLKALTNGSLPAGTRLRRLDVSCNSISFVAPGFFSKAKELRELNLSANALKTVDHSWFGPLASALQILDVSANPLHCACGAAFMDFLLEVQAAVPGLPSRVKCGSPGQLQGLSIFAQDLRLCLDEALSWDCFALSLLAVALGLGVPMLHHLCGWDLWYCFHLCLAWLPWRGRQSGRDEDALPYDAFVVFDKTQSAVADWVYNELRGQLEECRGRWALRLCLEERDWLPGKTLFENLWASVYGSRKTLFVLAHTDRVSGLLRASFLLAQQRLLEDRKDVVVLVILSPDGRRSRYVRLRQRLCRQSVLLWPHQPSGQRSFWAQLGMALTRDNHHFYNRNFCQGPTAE
Description: HEK-293 human TLR9 NF-kappaB luciferase reporter assay (CpG-ODN). As to conditions: ligand CpG-ODN, analyte NFkB-luciferase. Details: stably and individually express human TLR4, TLR7 or TLR9 full-length ORF cDNAs; expressed in transfected cells; host or cells: HEK-293 (ATCC) with ELAM-1 NF-kappaB luciferase reporter. The class given is cell-based. As for the experimental part: as §1, §2

Structures are written as SMILES. A value given as a limit tells only on which side of the number the result lay.

T1 sequence (O00206 24-839): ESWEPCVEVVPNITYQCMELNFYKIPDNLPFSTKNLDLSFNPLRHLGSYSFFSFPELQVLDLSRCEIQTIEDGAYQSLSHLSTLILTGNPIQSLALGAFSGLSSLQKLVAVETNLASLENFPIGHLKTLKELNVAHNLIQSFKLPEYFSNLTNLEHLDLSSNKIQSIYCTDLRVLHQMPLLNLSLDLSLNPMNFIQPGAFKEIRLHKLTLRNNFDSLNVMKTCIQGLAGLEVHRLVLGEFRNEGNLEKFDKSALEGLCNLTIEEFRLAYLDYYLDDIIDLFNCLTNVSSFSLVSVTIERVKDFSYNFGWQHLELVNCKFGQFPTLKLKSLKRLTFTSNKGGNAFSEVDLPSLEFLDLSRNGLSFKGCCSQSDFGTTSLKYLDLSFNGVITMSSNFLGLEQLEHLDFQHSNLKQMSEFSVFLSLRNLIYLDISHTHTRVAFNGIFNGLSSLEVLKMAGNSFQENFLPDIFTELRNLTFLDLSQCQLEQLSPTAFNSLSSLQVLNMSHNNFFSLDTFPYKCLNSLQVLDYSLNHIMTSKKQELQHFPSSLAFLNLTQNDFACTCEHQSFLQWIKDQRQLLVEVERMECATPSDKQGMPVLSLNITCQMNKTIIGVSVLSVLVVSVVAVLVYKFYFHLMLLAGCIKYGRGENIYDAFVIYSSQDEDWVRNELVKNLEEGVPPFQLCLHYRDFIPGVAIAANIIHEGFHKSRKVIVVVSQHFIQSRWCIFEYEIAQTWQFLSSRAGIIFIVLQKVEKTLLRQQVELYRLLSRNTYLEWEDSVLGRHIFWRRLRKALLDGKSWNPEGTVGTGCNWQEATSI
T1 sequence (Q9Y6Y9 19-160 partner): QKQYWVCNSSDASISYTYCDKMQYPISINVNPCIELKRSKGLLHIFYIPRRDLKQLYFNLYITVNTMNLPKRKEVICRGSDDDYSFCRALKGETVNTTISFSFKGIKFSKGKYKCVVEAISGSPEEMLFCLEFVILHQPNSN

As for `C[C@@H]1CN(c2ccc(C#N)c3ncccc23)C[C@H](C(=O)N[C@H]2CNC[C@H]2F)O1.Cl` [ER-899742, (2R,6R)-4-(8-cyanoquinolin-5-yl)-N-[(3S,4R)-4-fluoropyrrolidin-3-yl]-6-methylmorpholine-2-carboxamide hydrochloride], the IC50 against Human TLR4 and against TLR9 was more than 10 µM throughout.
